How the values were obtained:
Type in all cases: physicochemical
[1] = Intrinsic dissolution rate (IDR) in 0.05M phosphate buffer pH 6.8
[2] = Dissolution (drug release) in 0.05 M phosphate buffer pH 6.8
[3] = Pharmaceutical loading (relative percentage of diclofenac by mass)
Description: It has been appreciated that the pharmaceutical loading in the TCPs may be less than that of a commercially available pharmaceutical sodium salt due to the mass of the organic linkers. Provided below is Table I showing a summary for the relative percentages in some of specific diclofenac TCPs. For example, the percent of diclofenac in sodium diclofenac is 93%, whereas the TCPs had loading ranging from 42-70%. The percentage of metal within the TCPs by mass ranged from 2.6-7.9% and the percent of linker by mass ranged from 22-41%. The TCP with EtOH in the name were synthesized in EtOH, all others were synthesized in MeOH. However, it is not strictly required that TCPs be prepared in MeOH and TCPs may be prepared in EtOH instead, or other solvents such as but not limited to: water, acetonitrile, dimethyl sulfoxide, nitromethane, isopropyl alcohol, dimethylformamide or a mixture thereof.

Row | intrinsic dissolution rate (IDR) [1] | diclofenac released ([2]; after 1 h) | percent of diclofenac (loading) [3] | ibuprofen released ([2]; after 5 min) | Structure (SMILES)
1 | 1161±0.216 μg cm^−2 min^−1 | 100% | 93% |  | O=C(O)Cc1ccccc1Nc1c(Cl)cccc1Cl [sodium diclofenac]
2 |  |  |  | 100% | CC(C)Cc1ccc(C(C)C(=O)O)cc1.[Na] (stereo not shown) [sodium ibuprofen]

From patent publication US20240342291A1, “Therapeutic Coordination Polymers Containing Pharmaceuticals for Drug Release Applications” (UNIVERSITY OF WINDSOR, priority 2021, published 2024)
